The record followed here is patent publication US5817828A, “Pyrazole derivatives” (Nissan Chemical Industries, Ltd., priority 1993, dated 1998).

In one assay the test system is angiotensin II (AngII). The assay is described as follows: Test for Antagonistic Effect against Angiotensin (inhibition of AngII contraction of rabbit thoracic aorta ring). The class given is cell-based. To be noted: Oryctolagus cuniculus, AngII 10^-8 M, corrected using DMSO, read-out: Percentage of Inhibition of Contraction; for inhibition at 0.1 µM: 1 × 10^-7 M compound; for inhibition at 0.01 µM: 1 × 10^-8 M compound. The method, then: Test for Antagonistic Effect against Angiotensin:
A rabbit was sacrificed while anesthetized with pentobarbital, and immediately its thoracic aorta was removed. This was cut into a ring specimen, kept at 37° C. and hung in a nutrient liquid (Krebs-Henseleit solution) aerated with a mixed gas comprising 95% oxygen and 5% carbon dioxide, whereupon its isometric contraction was measured. The specimen was equilibrated for one hour, with replacement of the nutrient liquid every 20 minutes, and thereafter angiotensin II (AngII: 10^-8 M) was applied thereto to cause its contraction. To evaluate the effect of the compounds of the present invention, the compound to be tested (10^-7 M or 10^-8 M) was applied as pre-treatment to the specimen in 20 minutes before the fourth application of AngII thereto, the percentage of inhibiting the contraction caused by AngII was obtained on the basis of the third contraction caused by AngII of being 100%. The percentage was corrected, using dimethylsulfoxide (DMSO).

Assay [1] deals with Angiotensin II (AT2) Receptor. The assay is described as follows: Test for Inhibition of Binding to Angiotensin II (AT2) Receptor. The conditions noted are these: 10^-6 M compound; 0.1 nM ^125 I-AngII; bovine brain specimen; 37° C., 30 minutes. How it is done:
Test for Inhibition of Binding to Angiotensin II (AT2) Receptor:
The effect of the compounds of the present invention for inhibiting the binding activity of Angiotensin II (AngII) to the bovine brain receptor were tested, according to the method by J. P. Bennett, Jr. et al. [J. Biol. Chem., 251, 7423-7430 (1976)].
10^-6 M of the compound of the present invention to be tested was added to an aqueous solution containing a predetermined amount of a bovine brain specimen and 0.1 nM of ^125 I-AngII and incubated at 37° C. for 30 minutes. The resulting solution was separated through a glass fiber filter to terminate the reaction. The radioactivity bonded to the filter was quantified by a γ-counter.

Assay [2] relates to spontaneous hypertensive male rat. The assay is described as follows: Test for Hypotensive Effect (oral, spontaneous hypertensive rat). The assay is classed as in vivo. The conditions noted are these: 30 mg/kg, spontaneous hypertensive male rat (10-week age). The method, then: Test for Hypotensive Effect
The compounds of the present invention to be tested were dissolved in a physiological saline solution and was orally administered to a spontaneous hypertensive male rat (10-week age). The blood pressure of the rat was measured, via a pressure transducer through the catheter that had previously been introduced into its aorta from its femoral artery. The variation in the blood pressure was observed from before the application of the compound to 20 hours after the application thereof.

The term inhibition denotes the change of the read-out against control, counted positive when it falls.

For `CCCNc1c(C(=O)O)c(N(CCC)Cc2ccc(-c3ccccc3-c3nnn[nH]3)cc2)nn1CCc1ccccc1` [compound 72], in the assay on angiotensin II (AngII), the inhibition at 0.1 µM came to 15% and the inhibition at 0.01 µM turned out to be 7%.
The matching figures for `CCCN(Cc1ccc(-c2ccccc2-c2nnn[nH]2)cc1)c1nn(CCc2ccccc2)c(C(=O)c2ccccc2)c1C(=O)O` [compound 71]: 36% and 14%.
The corresponding values for `CCCN(Cc1ccc(-c2ccccc2-c2nnn[nH]2)cc1)c1nn(CCc2ccccc2)c(-c2ccccc2)c1C(=O)O` [compound 61] are 77% and 34%.
For `CCCN(Cc1ccc(-c2ccccc2-c2nnn[nH]2)cc1)c1nn(CCc2ccccc2)c(-c2ccc(OC)cc2)c1C(=O)O` [compound 64], in the assay with angiotensin II (AngII), the inhibition at 0.1 µM was 92% and the inhibition at 0.01 µM was 29%.
For `CCCN(Cc1ccc(-c2ccccc2-c2nnn[nH]2)cc1)c1nn(CCc2ccccc2)c(Br)c1C(=O)O` [compound 4], the “Percentage of Inhibition” value in assay [1] was 55.1%. Moreover, in the assay on angiotensin II (AngII), the inhibition at 0.1 µM came out at 85% and the inhibition at 0.01 µM stood at 40%. Also, the “Time after the administration at which the largest percentage of blood pressure depression was obtained” value in assay [2] stood at 10 h. In assay [2] (observed to 20 hours), the “Largest Percentage of Blood Pressure Depression” value came out at 29.6%.
`CCCN(Cc1ccc(-c2ccccc2-c2nnn[nH]2)cc1)c1nn(CCc2ccccc2)c(Cl)c1C(=O)O` [compound 56]: in the assay with angiotensin II (AngII), the inhibition at 0.1 µM was 84% and the inhibition at 0.01 µM was found to be 51%.
Take `CCCN(Cc1ccc(-c2ccccc2-c2nnn[nH]2)cc1)c1nn(CCc2ccccc2)c(-c2cccs2)c1C(=O)O` [compound 68]: in the assay with angiotensin II (AngII), the inhibition at 0.1 µM was 35% and the inhibition at 0.01 µM turned out to be 18%.
The corresponding values for `CCCN(Cc1ccc(-c2ccccc2-c2nnn[nH]2)cc1)c1nn(CCc2ccccc2)c(-c2cccc(Br)n2)c1C(=O)O` [compound 67] are 35% and 13%.
